What is called IC50 is the midpoint of a concentration-inhibition curve.

The target of assay [1] is T1, βA(1-40) amyloid aggregates (Homo sapiens, UniProt P05067).
T1 construct: lyophilized β(1-40) protein powder (which may be purchased from BACHEM); purchased BACHEM
Kind of assay: Competition assay with Thioflavin T (ThT) for binding to β(1-40) amyloid aggregates, fluorescence 96-well plate. An excerpt:
Amyloid aggregates containing β(1-40) protein can also be made by methods well known to those skilled in the art. See, for example, Burdick D., Soreghan B., Kwon M., Kosmoski J., Knauer M., Henschen A., Yates J., Cotman C., and Glabe C. Assembly and aggregation properties of synthetic Alzheimer's A4/β amyloid peptide analogs. J. Biol. Chem., 267:546-554 (1992), which is hereby incorporated by reference. Briefly, lyophilized β(1-40) protein powder (which may be purchased from BACHEM) was dissolved at 10 mg/mL in hexafluoro-2-propanol and subsequently diluted to 500 μg/mL in 25 mM sodium phosphate buffer, pH 6 to induce the α-helix to β-sheet transition resulting in aggregate formation.
(§1) The ability of compounds of Formula I to compete with Thioflavin T (ThT) for binding to amyloid aggregates was measured using fluorescence in a 96-well fluorescence plate assay. As a compromise between sensitivity and signal and to facilitate comparisons between different amyloid fibrils, ThT is present at a concentration equal to the Kmapp of the particular amyloid fibril type and fibril concentrations yielding a similar fluorescence intensity are used. Insulin: 0.5 μM ThT, 2 μg per well. β(1-40): 20 μM ThT, 5 μg/well. All solutions are in 25 mM sodium phosphate buffer, pH 6.0, and the assay is performed at room temperature.
Using a multichannel pipettor, 100 μL of dilutions of the compound to be tested (0.001-30 μM final concentration in 3-fold steps) are placed in the bottom of Corning U-well polystyrene plates (Corning Company, Corning, N.Y.). 50 μL of ThT are then added to each well. The amyloid fibrils are then added to each well in a volume of 100 μL rapidly to mix the well contents. The plates are read within 5 to 30 minutes in a Millipore Cytofluor 2350 96-well fluorescence plate reader using an excitation filter of 440 nm (20 nm bandpass) and an emission filter of 485 nm (20 nm bandpass). ThT dye blanks were used to correct for the minimal fluorescence background which are subtracted from all data.
(§2) Results are expressed as % maximal fluorescence (no competing compound). […]

For assay [2], the target named is Insulin amyloid aggregates. Kind of assay: Competition assay with Thioflavin T (ThT) for binding to insulin amyloid aggregates, fluorescence 96-well plate. Particulars: 0.5 μM ThT, 2 μg per well fibrils, 25 mM sodium phosphate pH 6.0, room temperature. How it is done:
Burke M. J. and Rougevie M. A., Cross-β Protein Structures. I. Insulin Fibrils. […] Briefly, lyophilized insulin protein powder dissolved at 10 mg/mL in 50 mM HCl was alternately heated to 95° C. and frozen in dry ice to form amyloid aggregates.
as §1
Using a multichannel pipettor, 100 μL of dilutions of the compound to be tested (0.001-30 μM final concentration in 3-fold steps) are placed in the bottom of Corning U-well polystyrene plates (Corning Company, Corning, N.Y.). 50 μL of ThT are then added to each well. The amyloid fibrils are then added to each well in a volume of 100 μL rapidly to mix the well contents. […] ThT dye blanks were used to correct for the minimal fluorescence background which are subtracted from all data.
as §2

The mark [3] stands for this setting: 20 μM ThT, 5 μg/well fibrils, 25 mM sodium phosphate pH 6.0, room temperature, read-out: βA(1-40), IC50.

Where two headings read alike, the source gives them in different places.

T1 sequence (P05067 672-711 limits assumed): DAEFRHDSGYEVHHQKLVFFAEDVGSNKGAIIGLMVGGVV

Take `CN(C)c1ccc(/C=C/c2sc3c4ccccc4ccc3[n+]2C)cc1` [Example 24, (E)-2-[2-(4-Dimethylaminophenyl)vinyl]-3-methylnaphtho[2,1-d]thiazol-3-ium iodide]: the IC50 was determined as 210 nM in assay [1] (setting [3]) and 41 nM in assay [2].
Take `CN(C)c1ccc(/C=C/c2sc3ccccc3[n+]2Cc2ccccc2)cc1` [Example 6, (E)-3-Benzyl-2-[2-(4-dimethylaminophenyl)vinyl]benzothiazol-3-ium bromide]: the IC50 in assay [1] was found to be 110 nM; in assay [2], 12 nM.
Regarding `COc1ccc2nc(/N=N/c3ccc(N(C)C)cc3)sc2c1` [Example 49, 2-[[4-(Dimethylamino)phenyl]azo]-6-methoxybenzothiazole], the IC50 in assay [1] (setting [3]) worked out at 3200 nM; in assay [2], 700 nM.
For `Cc1ccc2sc(/C=C/c3ccc(N(C)C)cc3)[n+](C)c2c1` [Example 16, (E)-2-[2-(4-Dimethylaminophenyl)vinyl]-3,5-dimethylbenzothiazol-3-ium iodide] the same measures were 400 nM and 7.5 nM.
In the case of `C=CC[n+]1c(/C=C/c2ccc(N(C)C)cc2)sc2ccccc21` [Example 10, (E)-2-[2-(4-Dimethylaminophenyl)vinyl]-3-allylbenzothiazol-3-ium bromide], the IC50 worked out at 300 nM in assay [1] and 12 nM in assay [2].
In the case of `CN(C)c1ccc(N=Nc2sc3ccccc3[n+]2C)cc1` [Example 54, 2-[[4-(Dimethylamino)phenyl]azo]-3-methylbenzothiazolium methylsulfate], the IC50 was 1300 nM in assay [1] (setting [3]) and 60 nM in assay [2].
With `CN(C)c1ccc(/C=C/c2sc3ccccc3[n+]2Cc2ccc(F)cc2)cc1` [Example 25, (E)-2-[2-(4-Dimethylaminophenyl)vinyl]-3-(4-fluorobenzyl)benzothiazol-3-ium bromide], the IC50 in assay [1] was 120 nM; in assay [2], 42 nM.
Turning to `Cc1ccc2c(c1)sc(/C=C/c1ccc(N(C)C)cc1)[n+]2C` [Example 17, (E)-2-[2-(4-Dimethylaminophenyl)vinyl]-3,6-dimethylbenzothiazol-3-ium iodide], the IC50 in assay [1] (setting [3]) turned out to be 180 nM; in assay [2] it was 6 nM.
The like results for `CCCCCCC[n+]1c(/C=C/c2ccc(N(CC)CC)cc2)sc2ccccc21` [Example 44, (E)-2-[2-(4-Diethylaminophenyl)vinyl]-3-heptylbenzothiazol-3-ium iodide] were, in that order, 140 nM and 120 nM.
`COc1ccc2nc(/N=N/c3ccc(N(C)C)c4ccccc34)sc2c1` [Example 51, [4-(6-Methoxybenzothiazol-2-ylazo)naphthalen-1-yl]dimethylamine]: the IC50 in assay [1] (setting [3]) turned out to be 2500 nM; in assay [2] it was 340 nM.
For `CN(C)c1ccc(/C=C/c2sc3ccccc3[n+]2Cc2cccc(Oc3ccccc3)c2)cc1` [Example 30, (E)-2-[2-(4-Dimethylaminophenyl)vinyl]-3-(3-phenoxybenzyl)benzothiazol-3-ium bromide], the IC50 is 120 nM in assay [1] and 180 nM in assay [2].
Turning to `CC[n+]1c(/C=C/c2ccc(N(C)C)cc2)sc2ccccc21` [Example 7, (E)-2-[2-(4-Dimethylaminophenyl)vinyl]-3-ethylbenzothiazol-3-ium iodide], the values for the half-inhibitory concentration (IC50) in assay [1] (setting [3]) and in assay [2] were 400 nM and 6 nM, respectively.
On to `CN(C)c1ccc(/C=C/c2sc3ccccc3[n+]2Cc2cccc(C(=O)c3ccccc3)c2)cc1` [Example 29, (E)-3-(3-Benzoylbenzyl)-2-[2-(4-dimethylaminophenyl)vinyl]benzothiazol-3-ium bromide], for which the figures for the IC50 in assay [1] and in assay [2] were 230 nM and 130 nM, respectively.
Turning to `CCCC[n+]1c(/C=C/c2ccc(N(C)C)cc2)sc2ccccc21` [Example 11, (E)-2-[2-(4-Dimethylaminophenyl)vinyl]-3-butylbenzothiazol-3-ium iodide], the results for the IC50 in assay [1] (setting [3]) and in assay [2] were 160 nM and 27 nM, respectively.
On to `CN(C)c1ccc(/C=C/c2sc3ccccc3[n+]2Cc2ccc(-c3ccccc3)cc2)cc1` [Example 26, (E)-3-Biphenyl-4-ylmethyl-2-[2-(4-dimethylaminophenyl)vinyl]benzothiazol-3-ium iodide], for which the IC50 came out at 240 nM in assay [1] (setting [3]) and 34 nM in assay [2].
`CN(C)c1ccc(/C=C/c2sc3ccc(F)cc3[n+]2Cc2ccccc2)cc1` [Example 15, (E)-2-[2-(4-Dimethylaminophenyl)vinyl]-3-benzyl-5-fluorobenzothiazol-3-ium bromide]: the results for the IC50 in assay [1] and in assay [2] were 170 nM and 32 nM, respectively.
For the molecule `CN(C)c1ccc(/C=C/c2sc3ccccc3[n+]2CCC2CCCCC2)cc1` [Example 38, (E)-3-(2-Cyclohexylethyl)-2-[2-(4-dimethylaminophenyl)vinyl]benzothiazol-3-ium iodide], the values for the IC50 in assay [1] (setting [3]) and in assay [2] were 120 nM and 52 nM, respectively.
The like results for `CN(C)c1ccc(/C=C/c2sc3ccccc3[n+]2CCCc2ccccc2)cc1` [Example 31, (E)-2-[2-(4-Dimethylaminophenyl)vinyl]-3-(3-phenylpropyl)benzothiazol-3-ium iodide] were, in that order, 200 nM and 210 nM.
`Cc1ccc2c(c1)sc(/C=C/c1ccc(N(C)C)cc1)[n+]2Cc1ccccc1` [Example 18, (E)-3-Benzyl-2-[2-(4-dimethylaminophenyl)vinyl]-6-methylbenzothiazol-3-ium bromide]: the IC50 stood at 130 nM in assay [1] and 50 nM in assay [2].
For the molecule `CN(C)c1ccc(/C=C/c2[s+]c3ccc4ccccc4c3n2C)cc1` [Example 8, (E)-2-[2-(4-Dimethylaminophenyl)vinyl]-1-methylnaphtho[1,2-d]thiazol-3-ium iodide], the values for the IC50 in assay [1] (setting [3]) and in assay [2] were 210 nM and 53 nM, respectively.
Take `CN(C)c1ccc(/C=C/c2sc3ccccc3[n+]2CCCC(c2ccccc2)c2ccccc2)cc1` [Example 33, (E)-2-[2-(4-Dimethylaminophenyl)vinyl]-3-(4,4-diphenylbutyl)benzothiazol-3-ium iodide]: the IC50 in assay [1] (setting [3]) stood at 460 nM; in assay [2], 210 nM.
Consider `CN(C)c1ccc(/N=N/c2nc3ccc(Cl)cc3s2)cc1` [Example 50, 6-Chloro-2-[[4-(dimethylamino)phenyl]azo]benzothiazole], for which the IC50 in assay [1] (setting [3]) and in assay [2] was 1300 nM throughout.

For the origin of these results see patent US6001331A, “Method of imaging amyloid deposits” (Warner-Lambert Company, priority 1998, dated 1999).
